Values of other authors in patent publication US10022338B2, “Honey bee mite disruptive compounds and methods of application” (SIMON FRASER UNIVERSITY, priority 2014, dated 2018).

System: olfactory sensory organ on the Varroa foreleg
Details: separate study

## CCN(CC)C(=O)c1cccc(C)c1 [DEET, 3-methyl-N,N-diethylbenzamide]
High dose
  long-term inhibition of Varroa's response to bee headspace: long-term inhibit
  short-term inhibition of Varroa's response to bee headspace: not significant
